Laboratory results from the supplement of paper PMC10883282.
± gives the standard deviation of the averaged measurements.

Columns and labels:
Assay in all cases: relative viability vs DMSO control (72 h) (fraction); higher = more viable cells
[1] = tested on: SW684
Method in brief: (§1)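 Sarcoma cell lines were seeded in 384-well plates at densities set to reach 80–90% confluence. After 24 h, 2.5 µl of serially diluted compound was added (source plates 10 mM to 0.0002 mM), and plates were held 72 h at 37 °C, 5% CO2, with 0.1% DMSO vehicle and a 5 µM positive control. Relative viability came from ATPLite readings as percent growth, averaged over up to triplicate wells. Data were rescaled so full viability equals 1 and none equals 0.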

[2] = tested on: A204
Method in brief: as §1

[3] = tested on: SK-ES-1
Method in brief: as §1

[4] = tested on: G401
Method in brief: as §1

[5] = tested on: SK-LMS-1
Method in brief: as §1

[6] = tested on: HS729
Method in brief: as §1

[7] = tested on: SW872
Method in brief: as §1

[8] = tested on: MES-SA
Method in brief: as §1

[9] = tested on: SYO-1
Method in brief: as §1

[10] = tested on: SW1353
Method in brief: as §1

[11] = tested on: SW982
Method in brief: as §1

[12] = tested on: KHOS-240S
Method in brief: as §1

CCCS(=O)(=O)N[C@H]1C[C@@H](N(C)c2ncnc3[nH]ccc23)C1 [Abrocitinib]
Settings	relative viability
[1], 0.00017 µM	1.11 ± 0.052
[1], 0.00051 µM	1.12 ± 0.036
[1], 0.00152 µM	1.12 ± 0.078
[1], 0.00457 µM	1.15 ± 0.066
[1], 0.01372 µM	1.12 ± 0.036
[1], 0.04115 µM	1.13 ± 0.03
[1], 0.1235 µM	1.14 ± 0.054
[1], 0.3704 µM	1.16 ± 0.075
[1], 1.111 µM	1.11 ± 0.039
[1], 3.333 µM	1.09 ± 0.056
[1], 10 µM	1.08 ± 0.066
[2], 0.00017 µM	1.07 ± 0.059
[2], 0.00051 µM	1.06 ± 0.072
[2], 0.00152 µM	1.07 ± 0.047
[2], 0.00457 µM	1.06 ± 0.069
[2], 0.01372 µM	1.07 ± 0.053
[2], 0.04115 µM	1.07 ± 0.052
[2], 0.1235 µM	1.07 ± 0.043
[2], 0.3704 µM	1.07 ± 0.056
[2], 1.111 µM	1.03 ± 0.067
[2], 3.333 µM	1.01 ± 0.067
[2], 10 µM	0.949 ± 0.034
[3], 0.00017 µM	1.03 ± 0.06
[3], 0.00051 µM	1.06 ± 0.012
[3], 0.00152 µM	1.04 ± 0.024
[3], 0.00457 µM	1.03 ± 0.025
[3], 0.01372 µM	1.03 ± 0.03
[3], 0.04115 µM	1.02 ± 0.041
[3], 0.1235 µM	1.03 ± 0.019
[3], 0.3704 µM	1.03 ± 0.014
[3], 1.111 µM	1.02 ± 0.015
[3], 3.333 µM	1.03 ± 0.043
[3], 10 µM	1 ± 0.042
[4], 0.00017 µM	1 ± 0.022
[4], 0.00051 µM	0.981 ± 0.066
[4], 0.00152 µM	0.994 ± 0.03
[4], 0.00457 µM	1.04 ± 0.025
[4], 0.01372 µM	1.01 ± 0.012
[4], 0.04115 µM	0.981 ± 0.028
[4], 0.1235 µM	0.984 ± 0.042
[4], 0.3704 µM	1.01 ± 0.041
[4], 1.111 µM	1.01 ± 0.031
[4], 3.333 µM	0.956 ± 0.015
[4], 10 µM	0.915 ± 0.014
[5], 0.00017 µM	1 ± 0.039
[5], 0.00051 µM	1.03 ± 0.036
[5], 0.00152 µM	1.01 ± 0.0099
[5], 0.00457 µM	1.02 ± 0.028
[5], 0.01372 µM	1.04 ± 0.019
[5], 0.04115 µM	1.04 ± 0.05
[5], 0.1235 µM	0.992 ± 0.047
[5], 0.3704 µM	1.01 ± 0.038
[5], 1.111 µM	1.01 ± 0.029
[5], 3.333 µM	1.02 ± 0.02
[5], 10 µM	1.02 ± 0.024
[6], 0.00017 µM	0.926 ± 0.048
[6], 0.00051 µM	0.935 ± 0.032
[6], 0.00152 µM	0.937 ± 0.084
[6], 0.00457 µM	0.951 ± 0.049
[6], 0.01372 µM	0.94 ± 0.047
[6], 0.04115 µM	0.95 ± 0.027
[6], 0.1235 µM	0.909 ± 0.03
[6], 0.3704 µM	0.91 ± 0.025
[6], 1.111 µM	0.941 ± 0.021
[6], 3.333 µM	0.8836 ± 0.0067
[6], 10 µM	0.892 ± 0.02
[7], 0.00017 µM	0.993 ± 0.046
[7], 0.00051 µM	0.995 ± 0.05
[7], 0.00152 µM	0.991 ± 0.029
[7], 0.00457 µM	1 ± 0.046
[7], 0.01372 µM	1.01 ± 0.017
[7], 0.04115 µM	1.03 ± 0.011
[7], 0.1235 µM	1.02 ± 0.037
[7], 0.3704 µM	1.02 ± 0.019
[7], 1.111 µM	1.03 ± 0.014
[7], 3.333 µM	1.01 ± 0.034
[7], 10 µM	1 ± 0.025
[8], 0.00017 µM	0.929 ± 0.014
[8], 0.00051 µM	0.904 ± 0.021
[8], 0.00152 µM	0.9 ± 0.017
[8], 0.00457 µM	0.9254 ± 0.0076
[8], 0.01372 µM	0.917 ± 0.011
[8], 0.04115 µM	0.932 ± 0.039
[8], 0.1235 µM	0.922 ± 0.013
[8], 0.3704 µM	0.942 ± 0.027
[8], 1.111 µM	0.912 ± 0.02
[8], 3.333 µM	0.933 ± 0.029
[8], 10 µM	0.893 ± 0.024
[9], 0.00017 µM	0.984 ± 0.051
[9], 0.00051 µM	0.951 ± 0.023
[9], 0.00152 µM	0.956 ± 0.038
[9], 0.00457 µM	0.972 ± 0.051
[9], 0.01372 µM	0.952 ± 0.029
[9], 0.04115 µM	0.957 ± 0.042
[9], 0.1235 µM	0.974 ± 0.043
[9], 0.3704 µM	0.959 ± 0.032
[9], 1.111 µM	0.993 ± 0.039
[9], 3.333 µM	0.994 ± 0.061
[9], 10 µM	1.01 ± 0.065
[10], 0.00017 µM	0.96 ± 0.016
[10], 0.00051 µM	0.966 ± 0.023
[10], 0.00152 µM	0.929 ± 0.033
[10], 0.00457 µM	0.96 ± 0.016
[10], 0.01372 µM	1 ± 0.055
[10], 0.04115 µM	0.9632 ± 0.0078
[10], 0.1235 µM	0.977 ± 0.03
[10], 0.3704 µM	0.999 ± 0.031
[10], 1.111 µM	0.958 ± 0.052
[10], 3.333 µM	0.991 ± 0.018
[10], 10 µM	0.996 ± 0.01
[11], 0.00017 µM	1.03 ± 0.049
[11], 0.00051 µM	1.04 ± 0.058
[11], 0.00152 µM	1.04 ± 0.047
[11], 0.00457 µM	1.04 ± 0.029
[11], 0.01372 µM	1.02 ± 0.018
[11], 0.04115 µM	1.06 ± 0.033
[11], 0.1235 µM	1.07 ± 0.026
[11], 0.3704 µM	1.044 ± 0.0066
[11], 1.111 µM	1.04 ± 0.037
[11], 3.333 µM	1.056 ± 0.0051
[11], 10 µM	1.06 ± 0.02
[12], 0.00017 µM	1.03 ± 0.011
[12], 0.00051 µM	1.03 ± 0.03
[12], 0.00152 µM	1.03 ± 0.044
[12], 0.00457 µM	1.04 ± 0.021
[12], 0.01372 µM	1.04 ± 0.038
[12], 0.04115 µM	1.04 ± 0.035
[12], 0.1235 µM	0.9912 ± 0.0098
[12], 0.3704 µM	1.02 ± 0.022
[12], 1.111 µM	1.03 ± 0.024
[12], 3.333 µM	1.05 ± 0.053
[12], 10 µM	0.988 ± 0.03
